{"source": "PubChem BioAssay AID2060893", "about": "(Molecular Pharmacology Branch, DTP, NCI, 2025)", "system": "K86415-001-R-J1-PDC complex spheroids, viability", "assay": "Anticancer human tumor K86415-001-R-J1-PDC patient-derived lung adenocarcinoma cell line growth inhibition [RAS]", "details": "for viability, T/C: stronger effect = lower value", "excerpt": "RAS pathway inhibitors in Combinations in Complex Spheroids\nA high-throughput screen of multi-cell type tumor spheroids was designed to identify active combinations of RAS pathway inhibitors and targeted small molecules. Complex spheroids include a stromal component modeled by human endothelial cells (HUVEC) and fibroblasts modeled by human mesenchymal stem cells (MSCs). The concentration ranges selected for each drug and investigational agent were based upon clinically achievable concentrations if the clinical Cmax of the agent was known.\nCompounds. The drugs and investigational agents: abemaciclib (NSC768073), cobimetinib (NSC768068), divarasib (GDC6063, NSC841802), docetaxel (NSC628503), GDC-1971 (RLY-1971, NSC841576), gemcitabine (NSC613327), inavolisib (NSC800729), ipatasertib (NSC767898), KB-0742 (NSC834161), MRTX-1133 (NSC836407), osimertinib (NSC779217), RMC-4630 (NSC839698), RMC-6236 (NSC851965), RMC-6291 (NSC852671), Ro-3306 (NSC812927), sapanisertib (NSC764658), SN-38 (NSC673596), staurosporine (NSC755774), SY5609 (NSC837396), and tovorafenib (DAY101, NSC766906), were obtained from the National Cancer Institute (NCI) Developmental Therapeutics Program Chemical Repository. The FDA-approved anticancer drug set is available from the NCI Developmental Therapeutics Program. […] The stock solutions were prepared in dimethyl sulfoxide (DMSO, Sigma-Aldrich, St. Louis, MO, cat. D2650) at 800-fold the tested concentration and stored at -70 degrees C prior to their use. All drugs and investigational agents were tested over a range starting from a high concentration at or near the clinical Cmax and decreasing in half-log increments. If the clinical Cmax for an agent had not been determined, the highest concentration tested was 10 microM.\nCell Culture. All cells were maintained in an incubator at 37 degrees C and 5% CO2 with 95% humidity. The PDC lines were cultured according to standard operating procedures established by the NCI PDMR. All PDCs were thawed and cultured in Matrigel-coated flasks prepared with a working solution of 1X Ham's F-12 nutrient mix, without supplementation (Invitrogen, Waltham, MA, cat. 11765054), 100 U/mL penicillin-streptomycin (Invitrogen, cat. 15140122), and 2.5% Matrigel (Corning Inc., Corning, NY, cat. 354248) for the first three passages. The 362531-283-R-J2-PDC and 782815-120-R-J1-PDC lines were cultured in 6C/Colon 1B media, which includes advanced DMEM/F-12 (Thermo Fisher Scientific, cat. 12634028), 10 mM HEPES (Thermo Fisher Scientific, cat. 15630080), 1X GlutaMAX supplement (Thermo Fisher Scientific, cat. 35050061), 0.1 mg/mL primocin (InvivoGen, San Diego, CA, cat. ant-pm-2), 10% defined fetal bovine serum, heat inactivated (HyClone Laboratories Inc., Logan, UT, cat. SH30070.03HI), 50% L-WRN conditioned media (ATCC, cat. CRL-3276), 1.25 mM N-Acetyl-L-cysteine (Sigma-Aldrich, cat. A9165), 10 mM nicotinamide (Sigma-Aldrich, cat. N0636), 1X B-27 supplement (Thermo Fisher Scientific, cat. 17504044), 1X N-2 supplement (Thermo Fisher Scientific, cat. 17502048), 50 ng/mL human EGF (Thermo Fisher Scientific, cat. PHG0311), and 10 microM Y-27632 dihydrochloride (Tocris Bioscience, cat. 1254). The K12877-001-R-J1-PDC line was cultured in 6I media, which includes all 6C/Colon 1B media plus 10 ng/mL human FGF-10 (PeproTech, cat. 100-26), 1 ng/mL human FGF-2 (PeproTech, cat. 100-18B), 1 µM prostaglandin E2 (Tocris Bioscience, cat. 2296), […] hydrocortisone (Sigma-Aldrich, cat. H4001), and […] bovine insulin (Sigma-Aldrich, cat. I6634). The K86415-001-R-J1-PDC line was cultured in 6D media, which includes all 6C/Colon 1B media components minus the L-WRN conditioned media. The 485176-168-R4-J1-PDC was cultured in PANC media, which includes all 6C/Colon 1B media plus 100 ng/mL human FGF-10 (PeproTech, cat. 100-26), 500 nM SB-431542 (Selleckchem, cat. S1067), and 10 nM gastrin (Tocris Bioscience, cat. 3006). […]", "note": "Where “and” joins values, the source holds several entries; their conditions need not be identical. Equal values may be shown once.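 Further: spheroids exposed to agents for seven days before readout.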"}
{"smiles": "C[C@@H](NC(=O)c1ncnc(N)c1Cl)c1ncc(C(=O)Nc2cc(C(F)(F)F)c(Cl)cn2)s1", "values": [{"measurement": "viability, T/C", "setting": "compound 0.0316 µM", "result": "113% [middle of 4 runs]"}, {"measurement": "viability, T/C", "setting": "compound 0.1 µM", "result": "113% [middle of 4 runs]"}, {"measurement": "viability, T/C", "setting": "compound 0.316 µM", "result": "97.1% and 109% (2×) and 92.8%"}, {"measurement": "viability, T/C", "setting": "compound 1 µM", "result": "87.8% [middle of 4 runs]"}, {"measurement": "viability, T/C", "setting": "compound 3.16 µM", "result": "77.2% [middle of 4 runs]"}, {"measurement": "viability, T/C", "setting": "compound 10 µM", "result": "64.7% [middle of 4 runs]"}, {"measurement": "IC50", "setting": "curve of compound", "result": "> 10000", "unit": "nM"}]}
{"smiles": "CCC(CC)c1cc(NC2CCC(N)C2)n2nccc2n1", "note": "(centres undefined) + C#Cc1c(F)ccc2cc(O)cc(-c3ncc4c(N5CC6CCC(C5)N6)nc(OCC56CCCN5CC(F)C6)nc4c3F)c12", "values": [{"measurement": "IC50", "setting": "curve of first compound, second compound 0.0316 µM", "result": 1800, "unit": "nM"}, {"measurement": "IC50", "setting": "curve of first compound, second compound 0.1 µM", "result": 1780, "unit": "nM"}, {"measurement": "IC50", "setting": "curve of first compound, second compound 0.316 µM", "result": 1710, "unit": "nM"}, {"measurement": "IC50", "setting": "curve of first compound, second compound 1 µM", "result": 1620, "unit": "nM"}, {"measurement": "IC50", "setting": "curve of first compound, second compound 3.16 µM", "result": 1050, "unit": "nM"}, {"measurement": "IC50", "setting": "curve of first compound, second compound 10 µM", "result": "< 31.6", "unit": "nM"}, {"measurement": "viability, T/C", "setting": "second compound 0.0316 µM, first compound 0.0316 µM", "result": 108, "unit": "%"}, {"measurement": "viability, T/C", "setting": "second compound 0.0316 µM, first compound 0.1 µM", "result": 126, "unit": "%"}, {"measurement": "viability, T/C", "setting": "second compound 0.0316 µM, first compound 0.316 µM", "result": 109, "unit": "%"}, {"measurement": "viability, T/C", "setting": "second compound 0.0316 µM, first compound 1 µM", "result": 98.1, "unit": "%"}, {"measurement": "viability, T/C", "setting": "second compound 0.0316 µM, first compound 3.16 µM", "result": 3.47, "unit": "%"}, {"measurement": "viability, T/C", "setting": "second compound 0.0316 µM, first compound 10 µM", "result": 3.41, "unit": "%"}, {"measurement": "viability, T/C", "setting": "second compound 0.1 µM, first compound 0.0316 µM", "result": 99.1, "unit": "%"}, {"measurement": "viability, T/C", "setting": "second compound 0.1 µM, first compound 0.1 µM", "result": 98.2, "unit": "%"}, {"measurement": "viability, T/C", "setting": "second compound 0.1 µM, first compound 0.316 µM", "result": 109, "unit": "%"}, {"measurement": "viability, T/C", "setting": "second compound 0.1 µM, first compound 1 µM", "result": 97.4, "unit": "%"}, {"measurement": "viability, T/C", "setting": "second compound 0.1 µM, first compound 3.16 µM", "result": 2.92, "unit": "%"}, {"measurement": "viability, T/C", "setting": "second compound 0.1 µM, first compound 10 µM", "result": 2.14, "unit": "%"}, {"measurement": "viability, T/C", "setting": "second compound 0.316 µM, first compound 0.0316 µM", "result": 97.1, "unit": "%"}, {"measurement": "viability, T/C", "setting": "second compound 0.316 µM, first compound 0.1 µM", "result": 103, "unit": "%"}, {"measurement": "viability, T/C", "setting": "second compound 0.316 µM, first compound 0.316 µM", "result": 107, "unit": "%"}, {"measurement": "viability, T/C", "setting": "second compound 0.316 µM, first compound 1 µM", "result": 91.1, "unit": "%"}, {"measurement": "viability, T/C", "setting": "second compound 0.316 µM, first compound 3.16 µM", "result": 3.17, "unit": "%"}, {"measurement": "viability, T/C", "setting": "second compound 0.316 µM, first compound 10 µM", "result": 3.38, "unit": "%"}, {"measurement": "viability, T/C", "setting": "second compound 1 µM, first compound 0.0316 µM", "result": 74.2, "unit": "%"}, {"measurement": "viability, T/C", "setting": "second compound 1 µM, first compound 0.1 µM", "result": 83.7, "unit": "%"}, {"measurement": "viability, T/C", "setting": "second compound 1 µM, first compound 0.316 µM", "result": 85.7, "unit": "%"}, {"measurement": "viability, T/C", "setting": "second compound 1 µM, first compound 1 µM", "result": 90.2, "unit": "%"}, {"measurement": "viability, T/C", "setting": "second compound 1 µM, first compound 3.16 µM", "result": 3.62, "unit": "%"}, {"measurement": "viability, T/C", "setting": "second compound 1 µM, first compound 10 µM", "result": 2.6, "unit": "%"}, {"measurement": "viability, T/C", "setting": "second compound 3.16 µM, first compound 0.0316 µM", "result": 43.4, "unit": "%"}, {"measurement": "viability, T/C", "setting": "second compound 3.16 µM, first compound 0.1 µM", "result": 46.1, "unit": "%"}, {"measurement": "viability, T/C", "setting": "second compound 3.16 µM, first compound 0.316 µM", "result": 50.1, "unit": "%"}, {"measurement": "viability, T/C", "setting": "second compound 3.16 µM, first compound 1 µM", "result": 68.2, "unit": "%"}, {"measurement": "viability, T/C", "setting": "second compound 3.16 µM, first compound 3.16 µM", "result": 3.28, "unit": "%"}, {"measurement": "viability, T/C", "setting": "second compound 3.16 µM, first compound 10 µM", "result": 2.71, "unit": "%"}, {"measurement": "viability, T/C", "setting": "second compound 10 µM, first compound 0.0316 µM", "result": 15.4, "unit": "%"}, {"measurement": "viability, T/C", "setting": "second compound 10 µM, first compound 0.1 µM", "result": 18.1, "unit": "%"}, {"measurement": "viability, T/C", "setting": "second compound 10 µM, first compound 0.316 µM", "result": 24.3, "unit": "%"}, {"measurement": "viability, T/C", "setting": "second compound 10 µM, first compound 1 µM", "result": 33.3, "unit": "%"}, {"measurement": "viability, T/C", "setting": "second compound 10 µM, first compound 3.16 µM", "result": 2.78, "unit": "%"}, {"measurement": "viability, T/C", "setting": "second compound 10 µM, first compound 10 µM", "result": 2.37, "unit": "%"}]}
